According to ChEMBL document CHEMBL5143616, “Novel biphenyl-based scaffold as potent and selective histone deacetylase 6 (HDAC6) inhibitors: Identification, development and pharmacological evaluation” (Eur J Med Chem, 2022):
Each block holds one molecule with its values, some of them ahead of it. Active and inactive are the calls of the source. No cut-off for these calls is given here.

Legend:
[1] = biological target: T1, Protein deacetylase HDAC6 (Mus musculus) (UniProt Q9Z2V5); test: Inhibition of HDAC6 in mouse B16 cells assessed as accumulation of acetylated alpha-tubulin level after 24 hrs by Western blotting analysis; type: cell-based
T1 sequence (whole entry): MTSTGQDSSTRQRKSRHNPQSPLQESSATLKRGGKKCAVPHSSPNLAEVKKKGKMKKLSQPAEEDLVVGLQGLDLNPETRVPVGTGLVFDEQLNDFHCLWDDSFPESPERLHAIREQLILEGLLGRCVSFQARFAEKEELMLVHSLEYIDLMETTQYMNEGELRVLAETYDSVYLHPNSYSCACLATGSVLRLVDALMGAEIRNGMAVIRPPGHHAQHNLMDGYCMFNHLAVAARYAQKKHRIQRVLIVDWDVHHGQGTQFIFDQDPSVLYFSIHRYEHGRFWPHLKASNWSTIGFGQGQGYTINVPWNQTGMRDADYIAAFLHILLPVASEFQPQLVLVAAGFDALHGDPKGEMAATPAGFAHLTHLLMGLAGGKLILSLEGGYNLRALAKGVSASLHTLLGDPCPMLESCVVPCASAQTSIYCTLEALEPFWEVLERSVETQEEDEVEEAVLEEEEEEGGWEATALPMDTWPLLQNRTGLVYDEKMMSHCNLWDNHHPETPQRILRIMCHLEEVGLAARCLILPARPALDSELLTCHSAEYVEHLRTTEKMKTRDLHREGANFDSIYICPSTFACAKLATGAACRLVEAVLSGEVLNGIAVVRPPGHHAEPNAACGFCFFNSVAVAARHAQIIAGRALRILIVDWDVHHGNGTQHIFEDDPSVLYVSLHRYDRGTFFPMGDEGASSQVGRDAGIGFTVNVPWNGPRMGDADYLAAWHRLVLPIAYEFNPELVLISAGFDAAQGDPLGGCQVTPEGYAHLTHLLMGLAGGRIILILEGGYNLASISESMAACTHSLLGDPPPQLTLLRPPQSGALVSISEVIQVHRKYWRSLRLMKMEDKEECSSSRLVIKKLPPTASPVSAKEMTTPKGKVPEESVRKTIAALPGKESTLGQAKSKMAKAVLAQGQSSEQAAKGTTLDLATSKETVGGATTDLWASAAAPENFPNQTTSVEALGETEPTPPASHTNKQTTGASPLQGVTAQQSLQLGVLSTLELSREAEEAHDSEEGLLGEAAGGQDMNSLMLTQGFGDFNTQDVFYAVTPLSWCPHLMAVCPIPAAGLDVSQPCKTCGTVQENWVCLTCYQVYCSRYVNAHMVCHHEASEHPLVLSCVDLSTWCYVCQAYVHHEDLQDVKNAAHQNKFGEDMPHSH

[2] = Stability in mouse liver microsomes assessed as half-life and measured by LC-MS/MS analysis; type: ADME, Microsome
B16 = test: Antiproliferative activity against mouse B16 cells after 72 hrs by MTT assay; type: functional, cell-based; settings: B16, 72 h
[3] = Stability in human plasma incubated for 6 hrs in presence of NADPH and measured by LC-MS/MS analysis; type: ADME, cell-free; settings: read-out: Stability
[4] = Stability in mouse plasma incubated for 6 hrs in presence of NADPH and measured by LC-MS/MS analysis; type: ADME, cell-free; settings: read-out: Stability
CT26 [5] = test: Antitumor immunity in C57BL/6 mouse xenografted with mouse CT26 cells assessed as increase in CD3+ cytotoxic T cells at 50 mg/kg, po administered once daily for 21 days measured by flow cytometry analysis; type: functional; settings: time 21 day
[6] = Stability in human liver microsomes assessed as half-life and measured by LC-MS/MS analysis; type: ADME, Microsome
[7] = Stability in mouse liver microsomes assessed as clearance and measured by LC-MS/MS analysis; type: ADME, Microsome; settings: read-out: CLH
CT26 [8] = test: Antitumor immunity in C57BL/6 mouse xenografted with mouse CT26 cells assessed as decrease in number of CD8+IFNgamma+ T cells at 100 mg/kg, po administered once daily for 21 days measured by flow cytometry analysis; type: functional; design: scale not given: the % may be the effect or the level left; settings: time 21 day
[9] = Stability in human liver microsomes assessed as clearance and measured by LC-MS/MS analysis; type: ADME, Microsome; settings: read-out: CLH
CT26 [10] = test: Antitumor immunity in C57BL/6 mouse xenografted with mouse CT26 cells assessed as decrease in number of CD4+CD25+ CD127- T regulatory cells at 100 mg/kg, po administered once daily for 21 days measured by flow cytometry analysis; type: functional; design: scale not given: the % may be the effect or the level left; settings: time 21 day
CT26 [11] = test: Induction of apoptosis in mouse CT26 cells assessed as apoptotic cells at 6 uM measured by Annexin V-FITC/PI staining based flow cytometry method; type: functional
CT26 [12] = test: Antitumor immunity in C57BL/6 mouse xenografted with mouse CT26 cells assessed as increase in CD3+ CD8+ cytotoxic T cells at 100 mg/kg, po administered once daily for 21 days measured by flow cytometry analysis; type: functional; settings: time 21 day
Histone deacetylase 3 = Histone deacetylase 3 (Homo sapiens, UniProt O15379); test: Inhibition of HDAC3 (unknown origin)
Sequence of Histone deacetylase 3 (O15379 whole entry): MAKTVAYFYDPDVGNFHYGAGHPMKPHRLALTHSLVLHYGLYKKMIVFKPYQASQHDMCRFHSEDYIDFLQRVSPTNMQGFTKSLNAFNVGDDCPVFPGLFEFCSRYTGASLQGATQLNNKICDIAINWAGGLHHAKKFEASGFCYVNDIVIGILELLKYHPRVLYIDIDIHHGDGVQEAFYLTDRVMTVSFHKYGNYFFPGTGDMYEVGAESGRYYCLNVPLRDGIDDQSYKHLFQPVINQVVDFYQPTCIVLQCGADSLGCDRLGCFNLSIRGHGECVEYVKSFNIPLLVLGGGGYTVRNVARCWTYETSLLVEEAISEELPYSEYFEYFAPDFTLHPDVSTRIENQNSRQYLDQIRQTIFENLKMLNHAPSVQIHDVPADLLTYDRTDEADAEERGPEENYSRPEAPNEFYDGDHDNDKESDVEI

Histone deacetylase 2 = Histone deacetylase 2 (Homo sapiens, UniProt Q92769)
Sequence of Histone deacetylase 2 (Q92769 whole entry): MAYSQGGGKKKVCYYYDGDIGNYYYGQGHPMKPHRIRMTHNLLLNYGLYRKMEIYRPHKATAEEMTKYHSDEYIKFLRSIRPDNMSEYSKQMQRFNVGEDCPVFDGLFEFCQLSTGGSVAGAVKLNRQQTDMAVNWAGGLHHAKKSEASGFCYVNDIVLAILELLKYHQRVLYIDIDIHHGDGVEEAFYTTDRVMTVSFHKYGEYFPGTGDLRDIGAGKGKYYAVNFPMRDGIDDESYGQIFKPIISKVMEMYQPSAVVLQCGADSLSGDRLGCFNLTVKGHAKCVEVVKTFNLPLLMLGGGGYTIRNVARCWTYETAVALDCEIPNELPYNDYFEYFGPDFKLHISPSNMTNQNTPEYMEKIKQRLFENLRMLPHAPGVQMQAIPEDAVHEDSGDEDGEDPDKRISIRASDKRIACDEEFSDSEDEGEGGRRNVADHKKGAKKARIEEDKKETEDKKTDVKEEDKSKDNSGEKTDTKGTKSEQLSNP
Description: Inhibition of HDAC2 (unknown origin) using Boc-Lys-(acetyl)-AMC as substrate incubated for 0.5 hr and measured after 20 mins by fluorescence assay

[13] = biological target: T1, Protein deacetylase HDAC6 (Mus musculus); test: Inhibition of HDAC6 in mouse B16 cells assessed as accumulation of acetylated alpha-tubulin level at 6 uM after 2 to 12 hrs by Western blotting analysis; type: cell-based; settings: time 2-12 hrs, TDE = time-dependent effect
[14] = biological target: T1, Protein deacetylase HDAC6 (Mus musculus); test: Inhibition of HDAC6 in mouse CT26 cells assessed as accumulation of acetylated alpha-tubulin level at 6 uM after 2 to 24 hrs by Western blotting analysis; type: cell-based; settings: time 2-24 hrs, TDE = time-dependent effect
[15] = biological target: T1, Protein deacetylase HDAC6 (Mus musculus); test: Inhibition of HDAC6 in mouse CT26 cells assessed as accumulation of acetylated alpha-tubulin level at 2 to 6 uM after 24 hrs by Western blotting analysis; type: cell-based; settings: dose 2-6 µM, DDE = dose-dependent effect
Histone deacetylase 8 = biological target: T2, Histone deacetylase 8 (Homo sapiens, UniProt Q9BY41); test: Inhibition of HDAC8 (unknown origin) using Boc-Lys-(triflouroacetyl)-AMC as substrate incubated for 0.5 hr and measured after 20 mins by fluorescence assay
T2 sequence (Q9BY41 whole entry): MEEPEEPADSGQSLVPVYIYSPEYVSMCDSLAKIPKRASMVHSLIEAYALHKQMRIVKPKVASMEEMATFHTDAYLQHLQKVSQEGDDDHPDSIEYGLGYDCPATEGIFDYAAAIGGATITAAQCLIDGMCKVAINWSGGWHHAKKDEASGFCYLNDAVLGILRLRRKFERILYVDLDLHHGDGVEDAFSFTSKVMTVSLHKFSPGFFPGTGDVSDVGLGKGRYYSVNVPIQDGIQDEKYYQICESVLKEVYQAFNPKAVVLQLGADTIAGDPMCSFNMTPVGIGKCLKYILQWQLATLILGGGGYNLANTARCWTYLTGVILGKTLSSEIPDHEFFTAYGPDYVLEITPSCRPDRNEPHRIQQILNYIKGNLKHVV

[16] = biological target: T1, Protein deacetylase HDAC6 (Mus musculus); test: Inhibition of HDAC6 in mouse B16 cells assessed as accumulation of acetylated alpha-tubulin level at 2 to 6 uM after 24 hrs by Western blotting analysis; type: cell-based; settings: dose 2-6 µM, DDE = dose-dependent effect

- acetylated alpha-tubulin accumulation [1]: Active
Structure (SMILES): Cc1c(COc2ccc(CNCCCCCCC(=O)NO)c(OCc3cccc(C#N)c3)c2)cccc1-c1ccccc1

- acetylated alpha-tubulin accumulation [1]: Active
Structure (SMILES): COc1cc(OCc2cccc(-c3ccc4c(c3)OCCO4)c2C)cc(OC)c1CNCCCCCC(=O)NO

- t1/2 ([2]; microsomes): 11.6 h
- IC50 (B16): 2.26 µM
- remaining at 6 h [3]: 77%
- remaining at 6 h [4]: 20%
- half-life [6]: 4.32 h
- microsomal CLint [7]: 2.04 µL/min/mg
- microsomal CLint [9]: 4.02 µL/min/mg
Structure (SMILES): O=C(CCCCCCC(=O)Nc1ccccc1)NO [VORINOSTAT]
- Activity (CT26 [5]): 57.83%
- Activity (CT26 [8]): 21.12%
- Activity (CT26 [10]): 27.99%
- Activity (CT26 [11]): 26%
- Activity (CT26 [12]): 32.56%

- IC50 (Histone deacetylase 3): 0.046 µM
- half-life ([2]; liver microsomes): 1.13 h
- IC50 (Histone deacetylase 2): 0.172 µM
- remaining at 6 h [3]: 97%
- remaining at 6 h [4]: 23%
- inhibition [13]: Tde
- acetylated alpha-tubulin accumulation [1]: Active
- half-life [6]: 1.7 h
- microsomal CLint [7]: 20.4 µL/min/mg
- inhibition [14]: Tde
- inhibition [15]: Dde
- microsomal CLint [9]: 34.1 µL/min/mg
- IC50 (Histone deacetylase 8): 2.18 µM
- inhibition [16]: Dde
Structure (SMILES): COc1cc(OCc2cccc(-c3ccccc3)c2C)cc(OC)c1CNCCCCCCC(=O)NO

- acetylated alpha-tubulin accumulation [1]: Active
Structure (SMILES): COc1cc(OCc2cccc(-c3ccccc3)c2C)cc(OC)c1CNCCCCCC(=O)NO
